Experimental data as given in US20260191838A1, “COMBINATIONS COMPRISING A MENIN-MLL INHIBITOR AND A BCL-2 INHIBITOR” (JANSSEN PHARMACEUTICA NV, priority 2022, published 2026).

Tests used:
[1] = test system: MV4-11 cells; assay: In vitro proliferation (Cell Titer Glo), Compound 51 with decitabine and venetoclax, MV4-11; assay type: cell-based, human; parameters: key to Synergy/antagonism call (maxR test): no asterisk: absence of any asterisk indicates an additive effect; antagonism is indicated by “*”; synergy is indicated by “**”; Effect size (BIGL, HSA null model): scale not given here
Description: 3a) In Vitro Proliferation—Menin-MLL Inhibitor in Combination with a DNA Hypomethylating Agent (Decitabine) and a BCL2 Inhibitor (Venetoclax)
The effect of Compound 51 in combination with decitabine and venetoclax was determined in proliferation assays.
AML cell lines MOLM-13, OCI-AML3 and MV4-11 were purchased from DSMZ. MOLM-13 were grown in RPMI medium supplemented with 10% Fetal Bovine Serum (FBS) and 1% penicillin/streptomycin. MV4-11 cells were grown in IMDM medium supplemented with 10% FBS and 1% penicillin/streptomycin. OCI-AML3 cells were cultured in 80-90% alpha-MEM (without ribo- and deoxyribonucleosides)+10-20% FBS. All cell lines were cultured at 37° C. in 5% CO2 atmosphere.
AML cell lines (10×10^3 cells/well) were seeded in 96-well plates and grown for 6 days in serum (10%)-containing medium in the presence or absence of inhibitors at the indicated concentrations. Proliferation was analyzed by means of a Cell Titer Glo assay using the CellTiter 96 Aqueous One Solution Cell Proliferation Assay (Promega, Madison, WI, USA), according to the manufacturer's instructions. Data are mean with standard deviation from two to four independent experiments in technical triplicates.
R-based Biochemically Intuitive Generalized Loewe (BIGL) model implemented with a highest single agent (HSA) null model. Specifically, the BIGL methodology was applied to calculate drug-drug interactions (Van der Borght, K., Tourny, A., Bagdziunas, R. et al. BIGL: Biochemically Intuitive Generalized Loewe null model for prediction of the expected combined effect compatible with partial agonism and antagonism. Sci Rep 7, 17935 (2017); Thas, O., Tourny, A., Verbist, B., Hawinkel, S., Nazarov, M., Mutambanengwe, K., & Bijnens, L. Statistical detection of synergy: new methods and a comparative study. Pharmaceutical Statistics (2021)).
Synergy matrix results of the BIGL analysis of the cell line data with HSA as mean model calculated on the basis of the cellular metabolic activity using Cell Titer-Glo assay. Bootstrap confidence intervals are indicated. Effect sizes and their confidence intervals are shown. […] No significant average effect if zero is included in the interval.

[2] = test system: MOLM-13 tumors in NSG mice; assay: Efficacy (survival) in disseminated MOLM-13 (KMT2A-rearranged) IV model in NSG mice; assay type: in vivo
Description: 4) Efficacy of Menin-KMT2A Inhibitor in Combination with Venetoclax, and Optionally, Azacitidine, in MOLM-13 (KMT2A-Rearranged) IV Model in NSG Mice
Compound 51 was formulated in purified pyrogen-free deionized water, pH 4.0 and prepared to reach a total volume of 8 mL/kg. Doses were adjusted by individual body weight each day. Working stocks of Compound 51 were prepared once per week for each study and stored at 25° C.
Female NSG (NOD.Cg-Prkdc^scid Il2rg^tm1Wj1/SzJ) mice were used when they were approximately 6 to 8 weeks of age and weighed approximately 25 g. All animals could acclimate and recover from any shipping-related stress for a minimum of 7 days prior to experimental use. Autoclaved water and irradiated food were provided ad libitum, and the animals were maintained on a 12 hour light and dark cycle. Cages, bedding, and water bottles were autoclaved before use and changed weekly. The tissue culture and cell injection reagents are summarized below in Table 5.
Tumor Model and Cell Culture Method
Human AML MOLM-13 cells were cultured at 37° C., 5% CO2 in the indicated complete culture media (RPMI 1640+10% HI-FBS+2 mM L-glutamine+50 μg/ml Gentamycin). Cells were harvested while in logarithmic growth and resuspended in cold (4° C.) Roswell Park Memorial Institute (RPMI) 1640 in serum-free medium.
For the disseminated MOLM-13 model, each mouse received 1×10^5 cells via IV injection in a total volume of 0.2 mL using a 26-gauge needle.
Day 0 is the day of tumor cell implantation and study initiation.
Mice bearing IV MOLM-13 xenograft tumors were randomly assigned to treatment groups 5 days post-tumor cell engraftment.
Animals were monitored daily for clinical signs related to either compound toxicity or tumor burden (i.e., hind limb paralysis, lethargy, etc.).
For survival assessment, results were plotted as the percentage survival against days post tumor implant. Negative clinical signs and/or ≥20% body weight loss was used as a surrogate endpoint for death. Median survival was determined utilizing Kaplan-Meier survival analysis. The percent increased life span (ILS) was calculated as: ((median survival day of treated group−median survival day of control group)/median survival day of control group)×100. Animals failing to reach the surrogate endpoint due to adverse clinical signs or death unrelated to treatment were censored for the survival assessment. As defined by NCI criteria, ≅25% ILS is considered biologically significant. (Johnson J I et al. Br J Cancer. 2001. 84(10), 1424-1431).
Survival and body weight data were graphically represented utilizing Prism (Version 9). Statistical significance for body weights was evaluated as described above. Statistical significance was evaluated for Kaplan-Meier survival plots comparing therapeutic treatment group vs. appropriate vehicle-treated control using log-rank (Mantel-Cox) test in R software version 3.4.2. Differences between groups were considered significant when the p value was ≤0.05.
The disseminated MOLM-13 model described above was used to examine the efficacy of menin-KMT2A-inhibitor (formulated as described above) in combination with venetoclax (formulated in polyethylene glycol [PEG]-400/Phosal50/dimethyl sulfoxide [DMSO]), and optionally azacitidine (formulated in 0.9% saline). Treatment with compound(s) was initiated 5 days after cell injection. Compound 51 was given in the morning, and venetoclax or azacitidine was given in the afternoon, approximately 6-8 hr apart.

[3] = Compound 51 0.01 μM, Decitabine 0.015 μM, Venetoclax 0.001 μM
[4] = Compound 51 0.01 μM, Decitabine 0.15 μM, Venetoclax 0.002 μM
[5] = Compound 51 0.01 μM, Decitabine 1.5 μM, Venetoclax 0.02 μM
[6] = Compound 51 0.05 μM, Decitabine 0.015 μM, Venetoclax 0.001 μM
[7] = Compound 51 0.05 μM, Decitabine 0.15 μM, Venetoclax 0.002 μM
[8] = Compound 51 0.05 μM, Decitabine 1.5 μM, Venetoclax 0.02 μM
[9] = Compound 51 0.1 μM, Decitabine 0.15 μM, Venetoclax 0.002 μM
[10] = Compound 51 0.1 μM, Decitabine 1.5 μM, Venetoclax 0.02 μM

CC(=O)N1CCC(CN2CC[C@@H](Cc3cn(-c4ccc(F)cc4C(=O)N(C)C(C)C)c4cncc(C)c34)C2)CC1 [Compound 51]
Effect size (BIGL, HSA null model) ([1]; Compound 51 0.001 μM, Decitabine 0.0015 μM, Venetoclax 0.0001 μM): −0.02 | Effect size (BIGL, HSA null model) ([1]; Compound 51 0.001 μM, Decitabine 0.015 μM, Venetoclax 0.001 μM): −0.05 | Effect size (BIGL, HSA null model) ([1]; Compound 51 0.001 μM, Decitabine 0.15 μM, Venetoclax 0.002 μM): −0.01 | Effect size (BIGL, HSA null model) ([1]; Compound 51 0.001 μM, Decitabine 1.5 μM, Venetoclax 0.02 μM): −0.08 | Effect size (BIGL, HSA null model) ([1]; Compound 51 0.001 μM, Decitabine 3 μM, Venetoclax 0.2 μM): −0.06 | Effect size (BIGL, HSA null model) ([1]; Compound 51 0.01 μM, Decitabine 0.0015 μM, Venetoclax 0.0001 μM): −0.02 | Effect size (BIGL, HSA null model) [1, 3]: 0.22 | Synergy/antagonism call (maxR test) [1, 3]: ** | Effect size (BIGL, HSA null model) [1, 4]: −0.26 | Synergy/antagonism call (maxR test) [1, 4]: ** | Effect size (BIGL, HSA null model) [1, 5]: −0.1 | Synergy/antagonism call (maxR test) [1, 5]: ** | Effect size (BIGL, HSA null model) ([1]; Compound 51 0.01 μM, Decitabine 3 μM, Venetoclax 0.2 μM): −0.06 | Effect size (BIGL, HSA null model) ([1]; Compound 51 0.05 μM, Decitabine 0.0015 μM, Venetoclax 0.0001 μM): 0 | Effect size (BIGL, HSA null model) [1, 6]: −0.17 | Synergy/antagonism call (maxR test) [1, 6]: ** | Effect size (BIGL, HSA null model) [1, 7]: −0.24 | Synergy/antagonism call (maxR test) [1, 7]: ** | Effect size (BIGL, HSA null model) [1, 8]: −0.1 | Synergy/antagonism call (maxR test) [1, 8]: ** | Effect size (BIGL, HSA null model) ([1]; Compound 51 0.05 μM, Decitabine 3 μM, Venetoclax 0.2 μM): −0.06 | Effect size (BIGL, HSA null model) ([1]; Compound 51 0.1 μM, Decitabine 0.0015 μM, Venetoclax 0.0001 μM): 0.03 | Effect size (BIGL, HSA null model) ([1]; Compound 51 0.1 μM, Decitabine 0.015 μM, Venetoclax 0.001 μM): −0.06 | Effect size (BIGL, HSA null model) [1, 9]: −0.09 | Synergy/antagonism call (maxR test) [1, 9]: ** | Effect size (BIGL, HSA null model) [1, 10]: −0.3 | Synergy/antagonism call (maxR test) [1, 10]: ** | Effect size (BIGL, HSA null model) ([1]; Compound 51 0.1 μM, Decitabine 3 μM, Venetoclax 0.2 μM): −0.06 | Effect size (BIGL, HSA null model) ([1]; Compound 51 0.5 μM, Decitabine 0.0015 μM, Venetoclax 0.0001 μM): 0 | Effect size (BIGL, HSA null model) ([1]; Compound 51 0.5 μM, Decitabine 0.015 μM, Venetoclax 0.001 μM): −0.02 | Effect size (BIGL, HSA null model) ([1]; Compound 51 0.5 μM, Decitabine 0.15 μM, Venetoclax 0.002 μM): −0.02 | Effect size (BIGL, HSA null model) ([1]; Compound 51 0.5 μM, Decitabine 1.5 μM, Venetoclax 0.02 μM): −0.03 | Effect size (BIGL, HSA null model) ([1]; Compound 51 0.5 μM, Decitabine 3 μM, Venetoclax 0.2 μM): −0.03 | Effect size (BIGL, HSA null model) ([1]; Compound 51 1 μM, Decitabine 0.0015 μM, Venetoclax 0.0001 μM): −0.03 | Effect size (BIGL, HSA null model) ([1]; Compound 51 1 μM, Decitabine 0.015 μM, Venetoclax 0.001 μM): −0.02 | Effect size (BIGL, HSA null model) ([1]; Compound 51 1 μM, Decitabine 0.15 μM, Venetoclax 0.002 μM): −0.02 | Effect size (BIGL, HSA null model) ([1]; Compound 51 1 μM, Decitabine 1.5 μM, Venetoclax 0.02 μM): −0.03 | Effect size (BIGL, HSA null model) ([1]; Compound 51 1 μM, Decitabine 3 μM, Venetoclax 0.2 μM): −0.08 | combination effect on proliferation (in words) ([1]; pairwise matrix of decitabine and Compound 51 in the presence of Venetoclax, MV4-11, 6-day CellTiter-Glo): synergistically cytotoxic | lifespan, Compound 51 in combination with venetoclax compared to venetoclax alone ([2]; MOLM-13 tumor-bearing mice): statistically significant increased lifespan | lifespan, Compound 51 in combination with venetoclax plus azacitidine compared to doublet venetoclax plus azacitidine ([2]; MOLM-13 tumor-bearing mice): statistically significant increased lifespan | % ILS (increased life span) ([2]; NSG mice with established MOLM-13 tumors, 4 weeks treatment, azacitidine 2 mg/kg ip QD × 7, venetoclax 100 mg/kg po QD × 28, Compound 51 2 mg/kg po QD × 28 (Table 6)): 5%
